According to US20230149326A1, “PHARMACEUTICAL COMPOSITION FOR PREVENTING OR TREATING MUSCULAR WEAKNESS-RELATED DISEASES COMPRISING ALVERINE, 4-HYDROXY ALVERINE, DERIVATIVE THEREOF, OR PHARMACEUTICALLY ACCEPTABLE SALT THEREOF” (AVENTI INC., priority 2020, published 2023):
Counter-ions that a name gives are not always drawn.

Legend:
C57BL/6 male mice = test: Balance coordination test (rota-rod), normal mouse; format: in vivo
Description: In order to confirm the muscle strength enhancement effect of alverine citrate, after administering alverine citrate to a mouse, the mouse was tested for motor functions such as grip strength, running, balance coordination, and the like. After motor function tests, muscle weight was measured. In particular, each of 10 week-old C57BL/6 male mice was dosed orally with 200 μL of alverine citrate for 4 weeks, at a daily dose of 17 mg/kg/day (AC-L), 50 mg/kg/day (AC-M) or 150 mg/kg/day (AC-H). This group of mice was set as the experimental group (FIG. 3). The 10 week-old C57BL/6 male mice were purchased from Daehan BioLink. Balance coordination was measured using a rota-rod test. The rota-rod test device consists of 4 test zones, each having a shaft diameter of 3 cm and a lane width of 9 cm, and 5 rotatable circular dividers having a diameter of 60 cm and a round rod. The test was started from a rotating speed of 10 rpm, and the speed was accelerated up to maximum 40 rpm over 5 minutes, and the duration for which the mouse remains inside the rota-rod device, clinging to the round rod without falling, was recorded. The mouse was allowed to rest for 15 minutes after each test and was subjected to three tests in total. An average value of three measurements was calculated.

C2C12 cells [1] = test: Promotion of differentiation of myoblasts (MyHC fluorescent staining); format: cell-based, mouse
Description: C2C12 (American Type Culture Collection, CRL-1772™) cells are a myoblast cell line obtained from C3H mouse and is used in myoblast differentiation research. The C2C12 cells were cultured using growth media, and then cultured using differentiation media for differentiation induction. Here, DMEM supplemented with 10% fetal bovine serum was used as growth media (GM), and DMEM supplemented with 5% horse serum (HS) was used as differentiation media (DM). In order to confirm the effect of alverine citrate on promoting the differentiation of myoblasts, C2C12 cells were dispensed in the GM of Example 1.1 and cultured for 24 hours, and then the C2C12 cells were treated with DMSO, insulin, or alverine citrate, and induced for differentiation over 3 days. […] Here, the DMSO, insulin and alverine citrate used in the experiment were all purchased from Sigma-Aldrich. The group treated with insulin was used as the positive control group. In particular, C2C12 cells were dispensed in a 6-well plate treated with the GM of Example 1.1 at a concentration of 5×10^5 cells per plate and after 24 hours, were replaced with DMEM media supplemented with 5% HS and induced for differentiation. Thereafter, the cells were treated with DMSO, insulin (1.72 μM) or alverine citrate (0.01 μM, 0.1 μM, 1 μM or 10 μM). After 3 days, after removing the media, the cells were washed with phosphate buffer solution (1× PBS) and treated with paraformaldehyde (4%) and fixed at room temperature for 15 minutes. Then, after washing three times with phosphate buffer solution (1× PBS), PBS containing 0.3% triton X-100 was treated with permeabilization buffer and allowed to react at room temperature for 10 minutes. After washing three times with phosphate buffer solution (1× PBS), PBST (blocking buffer, PBS containing 0.5% Tween 20) containing 2% bovine serum albumin was administered and allowed to react for 30 minutes to suppress nonspecific binding of antibodies. After washing with phosphate buffer (1× PBS) three times, 100 μL of primary antibodies (SC-20641, Santa Cruz Biotechnology) to MYH3 diluted to 1:500 were added and allowed to react at room temperature for 1 hour. Thereafter, after washing with phosphate buffer (1× PBS) three times, 100 μL of secondary antibodies (Goat anti-Rabbit IgG-HRP) diluted to 1:5,000 were added and allowed to react at room temperature for 1 hour. After 1 hour, for nuclear staining, after washing with phosphate buffer (1× PBS) three times, the blocking buffer was treated with diluted DAPI dye and allowed to react at room temperature for 10 minutes. Thereafter, after washing with phosphate buffer (1× PBS) three times, the washed cover glass was measured for absorbance at a wavelength of 450 nm and a fluorescent image was taken using a fluorescence microscope. The anti-MyHC antibody stained area was analyzed using imageJ (Java-based image processing program). To confirm the effect of 4-hydroxy alverine on promoting myoblast differentiation, following the same method as Example 1, DMSO, insulin (1.72 μM), alverine citrate (0.01 μM, 0.1 μM, 1 μM or 10 μM), 4-hydroxy alverine (0.01 μM, 0.1 μM, 1 μM or 10 μM) were each administered, and differentiation to myotubes and changes in myotube thickness and diameter were observed.

C2C12 cells [2] = test: Myotube atrophy induced by C26 cancer cell conditioned medium (cachexia model); format: cell-based, mouse; details: 1 μM; differentiation media with 33% CM, 3 days
Description: In order to confirm a cachexia treatment effect of alverine citrate and 4-hydroxy alverine, an experiment mimicking a tumor-growth environment by treatment of a cancer cell conditioned medium (CM) was conducted as an ex vivo approach. First, cancer cell CM was prepared using a C26 cancer cell line. Here, as cancel cell growth media (GM), RPMI1640 media supplemented with 10% fetal bovine serum was used. The C26 cancer cell line was cultured using a 100 mm cell culture plate and the cancer cell GM. Here, the media were removed when cell confluency reached 90%. Then, after washing with phosphate buffer (1× buffer), the prepared differentiation media were treated following the same process as in Example 1. After 24 hours, a C26 cancer cell line CM was obtained and filtered using bottle top filters (Thermo, PES, 1 L) before use.
C2C12 cells were dispensed in a 6-well plate treated with the GM of Example 1.1 at a concentration of 5×10^5 cells per plate and after 24 hours, were replaced with DMEM media supplemented with 5% HS and induced for differentiation. […] Here, by treating the experimental groups with 1 μM alverine citrate (AC) and 4-hydroxy alverine (4HA), the effect of suppressing myotube atrophy was evaluated. […] Following the same method as in Example 1.2, by florescent staining using antibodies against MyHC, the expression amount of MyHC was measured.

CCN(CCCc1ccccc1)CCCc1ccccc1 [alverine citrate]
duration clinging to the round rod, dependence on dose (C57BL/6 male mice; as the administration dose increased (17, 50, 150 mg/kg/day)): also increased proportionally
duration clinging onto the round rod (C57BL/6 male mice; oral, 4 weeks, 17, 50 or 150 mg/kg/day, compared with normal group): increased compared to the normal group mouse
diameter of myotubes (C2C12 cells [1]; as the treatment concentration increases (0.01, 0.1, 1, 10 μM), 3 days): the diameter of myotubes increased
differentiation of myoblasts to myotubes (C2C12 cells [1]; compared with DMSO alone, 3 days, insulin 1.72 μM, alverine citrate 0.01-10 μM): more differentiated to myotubes
differentiation of myoblasts to myotubes (C2C12 cells [1]; compared with DMSO or insulin (1.72 μM), 0.01-10 μM): more differentiated to myotubes
myotube atrophy (C2C12 cells [2]): myotube atrophy was suppressed
